{
  "source": "patent US20070149446A1",
  "about": "“Tamandarin analogs and fragments thereof and methods of making and using” (The Trustees of the University of Pennsylvania Center for …, priority 2003, published 2007)",
  "details": "amide bond, 17.0 h",
  "note": "Where two headings read alike, the source gives them in different places.",
  "data": [
    {"smiles": "CC(C)C[C@@H]1NC(=O)[C@H](C(C)C)OC(=O)C[C@H](O)[C@@H](C(C)C)NC(=O)[C@@H](NC(=O)OC(C)(C)C)[C@@H](C)OC(=O)[C@H](Cc2ccc3ccccc3c2)N(C)C(=O)[C@@H]2CCCN2C1=O", "values": [
      {"measurement": "ring closure, yield of all isomers", "setting": "from CN[C@@H](Cc1ccc2ccccc2c1)C(=O)O[C@H](C)[C@H](NC(=O)OC(C)(C)C)C(=O)N[C@H](C(C)C)[C@@H](O)CC(=O)O[C@H](C(=O)N[C@@H](CC(C)C)C(=O)N1CCC[C@H]1C(=O)O)C(C)C, HATU, CH3CN, 5.0 mM, 0.0 °C", "result": 65, "unit": "%"}
    ]},
    {"smiles": "CC(C)C[C@@H]1NC(=O)[C@H](C(C)C)OC(=O)C[C@H](O[Si](C(C)C)(C(C)C)C(C)C)[C@@H](C(C)C)NC(=O)[C@@H](NC(=O)OC(C)(C)C)[C@@H](C)OC(=O)[C@H](Cc2ccccc2)N(C)C(=O)[C@@H]2CCCN2C1=O", "values": [
      {"measurement": "ring closure, yield of all isomers", "setting": "from CC(C)C[C@H](NC(=O)[C@@H](OC(=O)C[C@H](O[Si](C(C)C)(C(C)C)C(C)C)[C@H](N)C(C)C)C(C)C)C(=O)N1CCC[C@H]1C(=O)N(C)[C@@H](Cc1ccccc1)C(=O)O[C@H](C)[C@H](NC(=O)OC(C)(C)C)C(=O)O, HATU/DIEA, DMF, 8.9 mM, 25.0 °C, 3 steps", "result": 15, "unit": "%"}
    ]},
    {"smiles": "COc1ccc(C[C@H]2C(=O)OC[C@H](NC(=O)OC(C)(C)C)C(=O)N[C@H](C(C)C)[C@@H](O)CC(=O)O[C@@H](C(C)C)C(=O)N[C@@H](CC(C)C)C(=O)N3CCC[C@H]3C(=O)N2C)cc1", "values": [
      {"measurement": "ring closure, yield of all isomers", "setting": "from CN[C@@H](Cc1ccc(OC)cc1)C(=O)OC[C@H](NC(=O)OC(C)(C)C)C(=O)N[C@H](C(C)C)[C@@H](O)CC(=O)O[C@H](C(=O)N[C@@H](CC(C)C)C(=O)N1CCC[C@H]1C(=O)O)C(C)C, HATU/NMM, CH3CN, 5.7 mM, 25.0 °C", "result": 89, "unit": "%"}
    ]}
  ]
}
